The values that follow are results of earlier work, collected in patent US20110264374A1, “Method, Computer Program Product and System for Individual Assessment of Alcohol Sensitivity” (UNIVERSITY OF VIRGINIA PATENT FOUNDATION, priority 2007, published 2011).

For data set [1] the following is noted: blood ethanol, oral ingestion; adopted from the literature [16, 24, 25].

Consider `CCO` [ethanol, Ethyl Alcohol], for which, where the note is “after consumption of one standard drink”, the “time to peak amount of alcohol in the blood” value was 30 to 45 min. Besides, where the note is “in vivo”, the “remainder not metabolized, excreted in sweat, urine and breath” value is given as 10%; the “share of alcohol entering the body completely metabolized in the liver” value was “More than 90%”. In addition, for the setting “oral consumption”, the “share of consumed alcohol absorbed from the small intestine” value was “approx. 80%” and the “share of consumed alcohol absorbed from the stomach” value is recorded as “approx. 20%”. Moreover, in data set [1], the “AUC (area under the curve)” value is reported as 0.23 g·h/L, the Cmax (usually the highest concentration seen after dosing) is reported as 0.1614 g/L and the tmax is 47 min.
